In PMC6930223 (Scientific Reports, 2019):

How the values were obtained:
hERG1a/Hsp70 complexes = assay: Co-immunoprecipitation of cg-hERG1a with chaperone; format: cell-based, human; settings: 24 h
Procedure: (§1) The co-immunoprecipitation method was adapted and modified slightly from the previously described methodologies[40],[52]. The treated recombinant cells were incubated for 15 min at room temperature with PBS containing cross-linker 1.5 mM dithiobis (succinimidyl propionate) (DSP, Pierce USA). The cross-linker was quenched by addition of 10 mM Tris (pH 7.5) and incubated for 10 min at room temperature. Cells were detached in 10 ml ice-cold PBS and centrifuged at 300 x g for 5 min at 4 °C. The pellet was then resuspended in 300 µl ice-cold complete diluted RIPA lysis buffer containing 0.1% (v/v) NP40, 50 mM Tris pH 7.5, 150 mM NaCl, 1x PMSF solution, 1x sodium orthovanadate solution and 1x protease inhibitor cocktail solution. Subsequently, the cell suspension was incubated at 4 °C for 30 min with constant agitation and finally centrifuged at 14, 000 rpm for 10 min at 4 °C. The supernatant was saved for total protein quantitation and subsequently for co-immunoprecipitation experiments.
(§2) Briefly, 500 µg of isolated total protein was mixed with 2 µg of hERG1 rabbit polyclonal IgG (Santa Cruz Biotechnology Inc., USA), mouse Hsp70/Hsc70 monoclonal antibody (Santa Cruz Biotechnology Inc., USA) or mouse Hsp90α/β monoclonal antibody (Santa-Cruz Biotechnology Inc., USA) respectively and incubated on ice on a rotary shaker overnight. Subsequently, 30 µl of protein A/G PLUS-agarose immunoprecipitation reagent (Santa Cruz Biotechnology Inc., USA) was added into the mixture, and incubated on ice on a shaker for 8 h and subsequently stored in 4 °C overnight. The mixture was centrifuged at 1500 rpm for 5 min at 4 °C, and the pellet was washed with ice-cold PBST, each time repeating the centrifugation process. Finally, the pellet was resuspended in 25 µl 1x Laemmli sample buffer (Bio-Rad Laboratories Inc., USA) with 2.5% (v/v) β-mercaptoethanol, and then heated at 70 °C for 2 h to reverse cross-linking and to release the immunoprecipitated protein from A/G PLUS-agarose beads. The samples were centrifuged at 1500 rpm for 5 min at 4 °C to pellet the agarose beads and 20 µl of the supernatant was used for subsequent SDS-PAGE and immunoblotting analysis as described previously.
(§3) To analyze the immunoprecipitated proteins, the membrane was probed with rabbit anti-potassium channel Kv11.1 extracellular antibody (1:200) (Sigma-Aldrich, USA), mouse Hsp70/Hsc70 monoclonal antibody (1:10, 000) and mouse Hsp90α/β monoclonal antibody (1:10, 000) in the same container. […] To quantify hERG1/chaperone interactions, image densities of the core-glycosylated (cg) hERG1 protein found in immunoprecipitations with anti-hERG1 antibody were used as a measure of total hERG1a protein present. […]

hERG1a/Hsp90 complexes = assay: Co-immunoprecipitation of cg-hERG1a with chaperone; format: cell-based, human; settings: 10 µM, 24 h, vs untreated control
Procedure: as §1, §2, §3

hERG1a [1] = test system: hERG1a; set-up: method as in PMID 27260674; settings: read-out: IC50 in hERG1a-transfected HEK293 cells; cited from earlier work
hERG1a [2] = assay: Immunofluorescence surface expression (CTCF/area) in HEK293-hERG1a/1b cells; format: cell-based, human; settings: 10 µM, 24 h, control 0.1% (v/v) DMSO
Procedure: (§4) Briefly, cells were first seeded onto 24 mm × 24 mm pre-coated glass cover slips (Leica Microsystems, Germany) in a 6 well plate containing 10% (v/v) FBS-complete DMEM medium. The sterile glass cover slips (Leica Microsystems, Germany) were coated with HistoGrip (Invitrogen, USA) before use. Cells were first cultured in fresh medium containing 0.5% (v/v) FBS for 4 h before replenishing with medium containing arsenic trioxide (positive control) or mitragynine for 24 h. Medium containing 0.1% (v/v) DMSO was used as control. After incubation, the monolayer cells were fixed with 4% (w/v) paraformaldehyde and incubated for 15 min at room temperature, followed by rinsing with PBST solution and incubating with 0.1% (v/v) Triton X-100 solution for 2 min. Subsequently blocking was performed with 3% (w/v) BSA for 1 h and followed by incubation with primary antibodies against hERG1a (1:1000) and hERG1b (1:125) at 4 °C overnight. Immunolabelling was carried out using anti-rabbit IgG F(ab’)2 Alexa Fluor® 488 molecular probes (Cell Signaling, USA) diluted at 1:250 in 3% (w/v) BSA at room temperature. Finally, the cover slips were mounted using Fluoroshield™ with DAPI (Sigma-Aldrich, USA) and viewed under 600x magnification using Nikon C2 confocal microscope (Nikon, USA). The excitation/emission wavelengths for Alexa Fluor 488 and DAPI were 488/512 nm and 405/488 nm respectively. The laser imaging settings such as laser power, gain and amplification factor were set to be similar for all samples. […] For each test sample, at least 20 cells were randomly selected from the 15 spots for quantitation. The green fluorescence intensity was quantified using ImageJ software (http://imagej.nih.gov/ij/)[72],[73]. Intensity was represented as the “corrected total cell fluorescence” (CTCF) per area using the equation “CTCF/area = [Integrated density - (Area of selected cell × Mean fluorescence of background readings)]/Area of selected cell”. Relative protein expression of hERG1a and hERG1b was determined by dividing the mean CTCF/area of treated cells to that of the untreated control. […]

hERG1b = assay: as above; format: cell-based, human; settings: 24 h
Procedure: as §4

Substance: mitragynine
- association of hERG1a/Hsp70 (hERG1a/Hsp70 complexes; 1 µM): not significantly affected
- association of hERG1a/Hsp70 (hERG1a/Hsp70 complexes; 10 μM): not significantly affected
- relative expression of hERG1a/Hsp90 complexes (hERG1a/Hsp90 complexes): significantly increased
- up-regulation of hERG1a interacting with Hsp90 (hERG1a/Hsp90 complexes): approximately 2.5 fold
- IC50 (hERG1a [1]): 1.62 µM
- hERG1a fluorescence intensity vs control (hERG1a [2]): significant reduction to approximately half of the intensity
- hERG1b fluorescence intensity (hERG1b; 1 µM): unaffected
- hERG1b fluorescence intensity (hERG1b; 10 μM): unaffected
